Results on one molecule are retold here after EPA's ToxValDB 9.5 (doi:10.2903/j.efsa.2005.46r).

One may read the NOAEL as the highest dose or exposure tested at which no adverse effect was seen.

≈ marks a conversion by molar mass, not a printed value.

The subject of one data set is Apis mellifera. The settings on record: acute, mortality.
The test system of a further data set is Bibionidae. The settings on record: chronic/long-term; duration: 28 days; development.
The subject of another data set is Chrysoperla externa. The settings on record: not reported; mortality.
Another data set has as its system Colinus virginianus. The settings on record: acute; oral; mortality.
A further data set deals with Daphnia magna. The settings on record: chronic/long-term; duration: 21 days; reproduction.
The next data set concerns Mus musculus. The settings on record: chronic; duration: 18 months; M; body weight.
Another data set has as its system Oncorhynchus mykiss. The settings on record: for NOEC: chronic/long-term.
Another data set deals with Pimephales promelas. The settings on record: chronic/long-term; duration: 36 days; time to hatch.
The next data set has as its system Tagia sp. The settings on record: acute; duration: 14 days; mortality.
The subject of a further data set is Typhlodromus pyri. The settings on record: not reported; mortality.

With `CNC(=O)/C(=N/OC)c1ccccc1COc1cc(C)ccc1C` [Dimoxystrobin], the NOEC in the data set on Anas platyrhynchos (reproductive) turned out to be 36 mg/kg-day; in the data set with Bibionidae, 0.01 mg/L; in the data set with Daphnia magna it was 0.0125 mg/L; in the data set on Oncorhynchus mykiss (duration: 28 days, mortality) it was 0.01 mg/L; in the data set with Oncorhynchus mykiss (duration: 97 days, behavior), 0.000316 mg/L; with Pimephales promelas, 0.016 mg/L. Besides, the LC50 in the data set with Anas platyrhynchos (short-term, oral, feed, mortality) is above 232 mg/kg-day; in the data set with Oncorhynchus mykiss (acute, duration: 96 hours, mortality), 0.0434 µg/mL (≈ 0.133 µM); in the data set with Rattus norvegicus (acute, oral, diet, mortality), 5 mg/kg-day; in the data set with Tagia sp. it was 47.3 mg/kg. Also, the LD50 in the data set with Apis mellifera (dermal) is above 100 µg/piece; in the data set with Apis mellifera (duration: 48 hours, oral, unspecified), above 79.4 µg/piece; in the data set on Colinus virginianus it was above 2000 mg/kg. Also, the LEL with Chrysoperla externa and with Typhlodromus pyri was 200 g/ha throughout. The NOAEL with Mus musculus was determined as 4 mg/kg-day; in the data set with Rattus norvegicus (short-term, duration: 7 days, clinical chemistry), 4 mg/kg-day.
